{"source": "patent US20070134744A1", "about": "“Epothilone resistant cell lines” (priority 2000, published 2007)", "key": {"[1]": {"target": "T1, tubulin in 297/C5/0 cells (Homo sapiens, UniProt P07437, T274P)", "T1 construct": "endogenous in cells; host or cells: 297/C5/0 and 298/D4/40 sublines of KB-31 (intact cells or hypotonic lysates)", "T1 sequence (P07437 whole entry T274P)": "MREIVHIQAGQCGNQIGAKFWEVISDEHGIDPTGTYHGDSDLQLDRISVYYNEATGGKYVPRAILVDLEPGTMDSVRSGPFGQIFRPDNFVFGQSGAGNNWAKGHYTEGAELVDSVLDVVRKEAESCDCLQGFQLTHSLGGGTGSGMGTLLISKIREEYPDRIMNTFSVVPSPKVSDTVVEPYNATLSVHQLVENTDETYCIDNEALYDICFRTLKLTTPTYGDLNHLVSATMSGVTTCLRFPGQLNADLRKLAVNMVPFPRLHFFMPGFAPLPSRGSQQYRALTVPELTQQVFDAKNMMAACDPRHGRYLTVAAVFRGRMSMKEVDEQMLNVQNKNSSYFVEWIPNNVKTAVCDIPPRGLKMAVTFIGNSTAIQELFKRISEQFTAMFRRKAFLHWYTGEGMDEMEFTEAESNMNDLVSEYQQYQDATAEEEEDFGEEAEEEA", "T1 sequence (P68363 whole entry partner)": "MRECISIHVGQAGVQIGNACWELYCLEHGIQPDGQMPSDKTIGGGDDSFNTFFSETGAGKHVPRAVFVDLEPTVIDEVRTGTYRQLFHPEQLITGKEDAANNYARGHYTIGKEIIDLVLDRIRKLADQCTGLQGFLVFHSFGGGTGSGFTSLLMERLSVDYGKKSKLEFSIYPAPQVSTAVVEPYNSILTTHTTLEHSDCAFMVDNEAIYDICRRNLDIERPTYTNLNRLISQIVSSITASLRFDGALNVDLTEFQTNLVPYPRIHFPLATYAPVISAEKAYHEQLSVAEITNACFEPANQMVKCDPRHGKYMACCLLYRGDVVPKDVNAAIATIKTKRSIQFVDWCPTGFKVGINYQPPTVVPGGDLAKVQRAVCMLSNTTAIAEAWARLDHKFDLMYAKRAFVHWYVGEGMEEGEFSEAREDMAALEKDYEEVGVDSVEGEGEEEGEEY", "test": "Cell-based tubulin polymerization assay", "conditions": "2 hours, 0-1000 nM, vs KB-31", "method": "(§1) Drug-induced changes in the ratios between unpolymerized and polymerized tubulin in intact and lysed cells, respectively, are assessed basically as described (Giannakakou et al, Int. J. Cancer 75: 57-63 (1998)). Briefly, for the assessment of cellular drug effects, 2×10^5 cells are seeded in a volume of 1 ml to maximally 6 wells per 24-well plate. After incubation for 18-24 hrs at 37° C. to allow for cell attachment, test substances are added to the cell culture medium to achieve the desired concentrations, followed by incubation of the cells for 2 hrs at 37° C. Final vehicle concentration is 1%. One plate at a time is then transferred to a dimmed tissue-culture hood and cells are washed twice with 1 ml of room-temperature phosphate-buffered saline lacking Ca^++ and Mg^++ (PBS/O). After careful removal of remaining PBS/O, 100 μl of room-temperature Hypotonic Lysis Buffer A (HLB/A: 20 mM Tris-HCl (pH 6.8), 1 mM Mg2Cl, 2 mM EGTA, 2 mM Pefabloc, 1 mM benzamidine, 10 μg/ml aprotinin, 10 μg/ml leupeptin, 0.5% Nonidet P-40) is added and plates are wrapped in aluminum foil to minimize artifacts due to light-driven tubulin polymerization. Following incubation for exactly 5 min at 37° C., cells are harvested by scraping and transferred to a room-temperature eppendorf tube. Harvested wells are washed once with 100 μl room temperature HLB/A and pooled with the corresponding initial samples. Tubes are vortexed for 5 seconds to aid cell lysis, followed by centrifugation for 10 min at room-temperature in a table-top centrifuge at 12′000×g to separate microtubules (pellet) from unpolymerized tubulin (supernatant). The supernatant is then carefully transferred to a fresh eppendorf tube and stored on ice until further processed. Meanwhile, the pelleted material is resuspended in 200 μl room-temperature Resuspension Buffer (RSB: 10 mM Tris-HCl (pH 7.5), 1.5 mM Mg2Cl, 2 mM EGTA, 1 mM Pefabloc, 1 mM benzamidine, 10 μg/ml aprotinin, 10 μg/ml leupeptin, 0.5% Nonidet P-40). Solubilization of the pellet is aided by placing the eppendorf tube for 30 seconds in a sonicator waterbath. […]"}, "tubulin in KB-31 cells": {"target": "T2, tubulin in KB-31 cells (Homo sapiens, UniProt P07437)", "T2 construct": "decrease in the unpolymerized pool of tubulin in KB-31 cell lysates; endogenous in cells; host or cells: KB-31 human epidermoid carcinoma cells (intact cells or hypotonic lysates)", "test": "Cell-based tubulin polymerization assay", "conditions": "2 hours, 0-1000 nM", "method": "as §1"}, "[2]": {"target": "T3, tubulin in 298/D4/40 cells (Homo sapiens, UniProt P07437, T274P)", "T3 construct": "endogenous in cells; host or cells: 297/C5/0 and 298/D4/40 sublines of KB-31 (intact cells or hypotonic lysates)", "T3 sequence (P07437 whole entry T274P)": "as the sequence (P07437 whole entry T274P) above", "T3 sequence (P68363 whole entry partner)": "as the sequence (P68363 whole entry partner) above", "test": "Cell-based tubulin polymerization assay", "conditions": "2 hours, up to 1000 nM", "method": "as §1"}, "EA150 cells": {"test_system": "EA150 cells", "test": "MTS growth inhibition assay", "format": "cell-based", "method": "(§2) Growth inhibition may be analyzed using conventional methods, for example a MTS assay (PROMEGA, Wis.) may be used. In this assay approximately 4000 cells per well are seeded in 96 well plates in MEM supplemented with 10% fetal calf serum and incubated at 37° C. in 5.0% CO2. After 24 hours, dilutions of drug (concentration range used is between 1 nM and 1000 nM) are added and cells are allowed to incubate with drug for an additional 72 hours. The MTS reagent mixed with PMS (MTS:PMS 20:1 according to manufacturer's instructions) is then added and absorbance quantitated using a Thermomax microplate reader system according to conventional methods (Molecular Devices, Sunnyvale, Calif.). […] Six assays per drug per plate are performed.\n(§3) Thus, at least two potential mechanisms of epothilone A resistance may exist—a lower resistance mechanism that is cross-resistant to TAXOL® and a higher, epothilone A specific resistance mechanism."}, "EA10 cells": {"test_system": "EA10 cells", "test": "MTS growth inhibition assay", "format": "cell-based", "method": "as §2, §3"}, "EA60 cells": {"test_system": "EA60 cells", "test": "MTS growth inhibition assay", "format": "cell-based", "method": "as §2, §3"}, "MDA-MB-435 cells": {"test_system": "MDA-MB-435 cells", "test": "MTS growth inhibition assay", "format": "cell-based", "conditions": "MTS, 72 hours drug, Table 1", "method": "as §2, §3"}, "EA20 cells": {"test_system": "EA20 cells", "test": "MTS growth inhibition assay", "format": "cell-based", "method": "as §2, §3"}}}
{"compound": "C/C(=C\\c1csc(C)n1)[C@@H]1C[C@@H]2O[C@@H]2CCC[C@H](C)[C@H](O)[C@@H](C)C(=O)C(C)(C)[C@@H](O)CC(=O)O1", "note": "[Epothilone A, epothilone A]", "values": [{"measurement": "drug concentrations required to decrease the unpolymerized tubulin fraction", "setting": "[1]", "value": "significantly higher"}, {"measurement": "unpolymerized tubulin in intact cells", "setting": "tubulin in KB-31 cells", "value": "dose-dependent decrease in the unpolymerized pool of tubulin"}, {"measurement": "epothilone A-mediated tubulin polymerization", "setting": "[2]", "value": "completely refractory"}, {"measurement": "increase in IC50 over MDA-MB-435 cells", "setting": "EA150 cells", "value": "> 100", "unit": "fold"}, {"measurement": "IC50", "setting": "EA150 cells; MTS, 72 hours drug, Table 1", "value": "> 0.5", "unit": "µM"}, {"measurement": "increase in IC50 over MDA-MB-435 cells", "setting": "EA10 cells", "value": 5, "unit": "fold"}, {"measurement": "IC50", "setting": "EA10 cells; MTS, 72 hours drug, Table 1", "value": "0.018 ± 0.0038", "unit": "µM"}, {"measurement": "increase in IC50 over MDA-MB-435 cells", "setting": "EA60 cells", "value": 15, "unit": "fold"}, {"measurement": "IC50", "setting": "EA60 cells; MTS, 72 hours drug, Table 1", "value": "0.082 ± 0.0015", "unit": "µM"}, {"measurement": "IC50", "setting": "MDA-MB-435 cells", "value": "0.004 ± 0.0018", "unit": "µM"}, {"measurement": "increase in IC50 over MDA-MB-435 cells", "setting": "EA20 cells", "value": 7, "unit": "fold"}, {"measurement": "IC50", "setting": "EA20 cells; MTS, 72 hours drug, Table 1", "value": "0.028 ± 0.003", "unit": "µM"}]}
